Results as given in patent publication US20260060982A1, “USE OF BTK INHIBITOR AND SINGLE-DOSE DRUG” (HUBEI BIO-PHARMACEUTICAL INDUSTRIAL TECHNOLOGICAL INSTITUTE …, priority 2023, published 2026).

Tested on: PG-PS-induced arthritis in Lewis rats
Experiment: PG-PS-induced arthritis model in rats
Type: in vivo
Settings: for joint tissue lesions (pathology): day 30
Excerpt: Intraperitoneal injection of PG-PS suspension can effectively induce chronic, erosive, and relapsing symptoms similar to human rheumatoid arthritis in rats, and is often used to evaluate the in vivo effectiveness of medicaments in the early discovery of arthritis medicaments. The specific steps were as follows:
On day 0, Lewis rats were randomly divided into 6 groups, with 5 rats in the first group and 10 rats in each group from the second group to the sixth group. All rats in the second to sixth groups were intraperitoneally injected with PG-PS (Lee Laboratories, PG-PS 10S, 5.1 mg/ml Rhamnose) to establish the model. The PG-PS injection dose v=15 μg/g×bw (rat weight, in g)/5.1 μg/μL.
On day 1, the model rats (the second to sixth groups) were randomly redivided into 5 groups, with 10 rats in each group. The animals in each group were given the corresponding medicament or vehicle by gavage once a day until the 29th day. […] Clinical observations and clinical scoring were performed daily during the administration period. The ankle diameter of each animal after modeling was subtracted from its ankle diameter before modeling to obtain the ankle diameter difference (delta ankle diameter). The area under the curve (AUC) was calculated by analyzing the ankle diameter difference of each animal in each group. The inhibition rate of each administration group relative to the blank vehicle control was calculated by the average AUC between groups.
Pathology: On day 30, the rats were euthanized. The two hind limbs of rats were stained with toluidine blue to evaluate the degree of joint damage in terms of inflammatory cell lesions, pannus formation, cartilage damage, bone resorption, and periosteal new bone formation, and the severity was scored on a scale from 0 to 7.

C=CC(=O)N1CCC[C@@H](n2nc(-c3ccc(Oc4ccccn4)cc3)c3c(N)n[nH]c(=O)c32)C1 [compound (I), (R)-1-(1-acryloylpiperidin-3-yl)-4-amino-3-(4-(pyridin-2-yloxy)phenyl)-1H-pyrazolo[3,4-d]pyridazin-7(6H)-one]
inhibition rate (AUC of ankle diameter difference vs blank vehicle control) (1 mg/kg once a day by gavage until the 29th day): 47.7% | joint tissue lesions (pathology) (1 mg/kg): trend of alleviating tissue damage | inhibition rate (AUC of ankle diameter difference vs blank vehicle control) (3 mg/kg once a day by gavage until the 29th day): 64.7% | joint tissue lesions (pathology) (3 mg/kg): significant improvement effect | inhibition rate (AUC of ankle diameter difference vs blank vehicle control) (10 mg/kg once a day by gavage until the 29th day): 77.3% | joint tissue lesions (pathology) (10 mg/kg): significant improvement effect
